In ChEMBL document CHEMBL1127898, “The role of oxygen in the photoinduced antiviral activity of hypericin” (1994):

Key:
Type in all cases: functional
[1] = tested on: Equine infectious anemia virus; assay: Antiviral activity against equine infectious anemia virus (EIAV) in hypoxic condition obtained by passing nitrogen gas, after 0 min of illumination using focal, immunoassay
[2] = tested on: Equine infectious anemia virus; assay: Antiviral activity against equine infectious anemia virus (EIAV) in deoxygenation condition effected by using beta-carotene at a concentration of 80 uM
[3] = tested on: Equine infectious anemia virus; assay: Antiviral activity against equine infectious anemia virus (EIAV) in deoxygenation condition effected by using beta-carotene at a concentration of 64 uM
[4] = tested on: Equine infectious anemia virus; assay: Antiviral activity against equine infectious anemia virus (EIAV) in deoxygenation condition effected by using beta-carotene at a concentration of 0 uM
[5] = tested on: Equine infectious anemia virus; assay: Antiviral activity against equine infectious anemia virus (EIAV) in hypoxic condition obtained by passing argon gas, after 0 min of illumination, using focal immunoassay
[6] = tested on: Equine infectious anemia virus; assay: Antiviral activity against equine infectious anemia virus (EIAV) in hypoxic condition obtained by passing nitrogen gas, after 10 min of illumination using focal, immunoassay
[7] = tested on: Equine infectious anemia virus; assay: Antiviral activity against equine infectious anemia virus (EIAV) in hypoxic condition obtained by passing argon gas, after 10 min of illumination, using focal immunoassay
[8] = tested on: Equine infectious anemia virus; assay: Antiviral activity against equine infectious anemia virus (EIAV) in oxygenated condition after 10 min of illumination, using focal immunoassay
[9] = tested on: Equine infectious anemia virus; assay: Antiviral activity against equine infectious anemia virus (EIAV) in deoxygenation condition effected by using beta-carotene at a concentration of 32 uM

With `Cc1cc(O)c2c(=O)c3c(O)cc(O)c4c5c(O)cc(O)c6c(=O)c7c(O)cc(C)c8c1c2c(c34)c(c78)c65` [HYPERICIN] the Infectious virus [1] was 14500 ffu ml-1, the Infectious virus [2] was 0 ffu ml-1 and the Infectious virus [3] was 0 ffu ml-1. It also gave an Infectious virus [4] of 0 ffu ml-1, an Infectious virus [5] of 5975 ffu ml-1 and an Infectious virus [6] of 25 ffu ml-1. It also gave an Infectious virus [7] of 225 ffu ml-1, an Infectious virus [8] of 0 ffu ml-1 and an Infectious virus [9] of 0 ffu ml-1.
